Patent publication US8450245B2, “Heterocyclic alkanol derivatives” (Bayer Intellectual Property GmbH, priority 2010, dated 2013)

Legend:
Sphaerotheca fisliginea = test: Sphaerotheca test (cucumber)/protective; type: in vivo; settings: young cucumber plants sprayed at 500 ppm, inoculated one day after treatment, evaluation 7 days after inoculation; 100% = no infection
Description: Solvent: 49 parts by weight of N,N-dimethylformamide
Emulsifier: 1 part by weight of alkylaryl polyglycol ether
To produce an appropriate active ingredient formulation, 1 part by weight of active ingredient is mixed with the specified amounts of solvent and emulsifier, and the concentrate is diluted with water to the desired concentration. To test for protective activity, young cucumber plants are sprayed with the formulation of active ingredient at the stated application rate. One day after the treatment, the plants are inoculated with a spore suspension of Sphaerotheca fisliginea. The plants are then placed in a greenhouse at 70% relative air humidity and a temperature of 23° C. Evaluation follows 7 days after the inoculation. 0% means an efficacy which corresponds to that of the control, whereas an efficacy of 100% means that no infection is observed. In this test, the following inventive compounds, at an active ingredient concentration of 500 ppm, show an efficacy of 70% or more.

Alternaria solani = test: Alternaria test (tomato)/protective; type: in vivo; settings: young tomato plants sprayed at 500 ppm, inoculated one day after treatment, evaluation 7 days after inoculation; 100% = no infection
Description: Solvent: 49 parts by weight of N,N-dimethylformamide Emulsifier: 1 part by weight of alkylaryl polyglycol ether To produce an appropriate active ingredient formulation, 1 part by weight of active ingredient is mixed with the specified amounts of solvent and emulsifier, and the concentrate is diluted with water to the desired concentration. To test for protective activity, young tomato plants are sprayed with the active ingredient formulation at the stated application rate. One day after the treatment, the plants are inoculated with a spore suspension of Alternaria solani and are then left at 100% relative humidity and 22° C. for 24 h. The plants are then left at 96% relative air humidity and a temperature of 20° C. Evaluation follows 7 days after the inoculation. 0% means an efficacy which corresponds to that of the control, whereas an efficacy of 100% means that no infection is observed. In this test, the following inventive compounds, at an active ingredient concentration of 500 ppm, show an efficacy of 70% or more.

[1] = logP by HPLC on reversed-phase columns (C 18), EEC Directive 79/831 Annex V.A8; type: physicochemical; settings: reversed-phase HPLC column (C 18); method [a]: LC-MS, acidic range, pH 2.7, 0.1% aqueous formic acid and acetonitrile, linear gradient 10% to 95% acetonitrile
Description: The logP values were measured in accordance with EEC Directive 79/831 Annex V.A8 by HPLC (High Performance Liquid Chromatography) using reversed-phase columns (C 18) by the following methods: [a] The LC-MS determination in the acidic range is effected at pH 2.7 with 0.1% aqueous formic acid and acetonitile (contains 0.1% formic acid) as eluents; linear gradient from 10% acetonitrile to 95% acetonitrile.

chromatographic logP [1]: 3.76
SMILES: CC(C)(C)C(O)(COc1ccc(I)c(F)c1F)c1cncs1 (stereo not drawn) [Compound 1]
Efficacy (%) (Sphaerotheca fisliginea): 94%
Efficacy (%) (Alternaria solani): 100%
